Assay results taken from the supplement of paper PMC11061612.

Assays:
Test in all cases: Bliss excess, mean over the matrix (fraction); higher = more synergy
[1] = tested on: CAL-54 (Kidney Carcinoma)
Summary of the method: (§1)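 Cell lines grown in DMEM/F12 or RPMI with 10% FBS were plated in 1536-well plates and held 24 hours at 37°C, 5% CO2 before 72 hours of exposure to two-drug dose matrices, with DMSO typically at 0.2%. CellTiter-Glo 2.0 luminescence gave viability, which was converted to inhibition. Vehicle wells were set to 0 and blank wells to 1. Combination Emax is the second-highest inhibition in the matrix, and Bliss excess is the observed combination effect minus the expected EA + EB − EA·EB, where EA and EB are the single-agent effects.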

[2] = tested on: CAPAN-1 (Pancreatic Carcinoma)
Summary of the method: as §1

[3] = tested on: EN (Endometrial Carcinoma)
Summary of the method: as §1

[4] = tested on: HARA (Squamous Cell Lung Carcinoma)
Summary of the method: as §1

HMV-II (Melanoma) = tested on: HMV-II (Melanoma)
Summary of the method: as §1

[5] = tested on: HO-1-u-1 (Oral Cavity Carcinoma)
Summary of the method: as §1

[6] = tested on: K5 (Thyroid Gland Carcinoma)
Summary of the method: as §1

[7] = tested on: MDA-MB-468 (Breast Carcinoma)
Summary of the method: as §1

Mewo (Melanoma) = tested on: Mewo (Melanoma)
Summary of the method: as §1

NCI-H2461 (Mesothelioma) = tested on: NCI-H2461 (Mesothelioma)
Summary of the method: as §1

NCI-H2795 (Mesothelioma) = tested on: NCI-H2795 (Mesothelioma)
Summary of the method: as §1

[8] = tested on: NCI-H69 (Small Cell Lung Carcinoma)
Summary of the method: as §1

[9] = tested on: OC-314 (Ovarian Carcinoma)
Summary of the method: as §1

[10] = tested on: PCI-30 (Head and Neck Carcinoma)
Summary of the method: as §1

[11] = tested on: RPMI-6666 (Non-Cancerous)
Summary of the method: as §1

[12] = tested on: RT-112 (Bladder Carcinoma)
Summary of the method: as §1

SH-4 (Melanoma) = tested on: SH-4 (Melanoma)
Summary of the method: as §1

[13] = tested on: SU-DHL-6 (B-Cell Non-Hodgkin's Lymphoma)
Summary of the method: as §1

[14] = tested on: SW1116 (Colorectal Carcinoma)
Summary of the method: as §1

[15] = tested on: SW1271 (Small Cell Lung Carcinoma)
Summary of the method: as §1

`C[C@@H](Oc1cc(-c2cnn(C3CCNCC3)c2)cnc1N)c1c(Cl)ccc(F)c1Cl` [Crizotinib] + CC1=C(C(=CC=C1)Cl)NC(=O)C2=CN=C(S2)NC3=CC(=NC(=N3)C)N4CCN(CC4)CCO [Dasatinib] (first compound max 10 µM, 7x7, partner max 2 µM) showed a Bliss excess [1] of -0.033, a Bliss excess [2] of -0.0481 and a Bliss excess [3] of -0.0798. For the same compound, the Bliss excess [4] was 0.0526, the Bliss excess (HMV-II (Melanoma)) was -0.104 and the Bliss excess [5] was -0.0488. The Bliss excess [6] was -0.0107, the Bliss excess [7] was 0.0256 and the Bliss excess (Mewo (Melanoma)) was -0.0156. The Bliss excess (NCI-H2461 (Mesothelioma)) was -0.0186, the Bliss excess (NCI-H2795 (Mesothelioma)) was 0.0277 and the Bliss excess [8] was 0.0403. The Bliss excess [9] was 0.032, the Bliss excess [10] was 0.0685 and the Bliss excess [11] was 0.0471. It also gave a Bliss excess [12] of 0.0179, a Bliss excess (SH-4 (Melanoma)) of -0.0674 and a Bliss excess [13] of -0.0146. It also gave a Bliss excess [14] of 0.0159 and a Bliss excess [15] of 0.0464.

`C[C@@H](Oc1cc(-c2cnn(C3CCNCC3)c2)cnc1N)c1c(Cl)ccc(F)c1Cl` [Crizotinib] + Cn1cnc2c(F)c(Nc3ccc(Br)cc3Cl)c(C(=O)NOCCO)cc21 [Selumetinib] (first compound max 10 µM, 7x7, partner max 10 µM) was tested, and the Bliss excess [1] was -0.0135, the Bliss excess [2] was -0.046 and the Bliss excess [3] was -0.0542. The Bliss excess [4] was -0.0366, the Bliss excess (HMV-II (Melanoma)) was -0.0273 and the Bliss excess [5] was -0.0779. For the same compound, the Bliss excess [6] was -0.0788, the Bliss excess [7] was -0.0996 and the Bliss excess (Mewo (Melanoma)) was -0.0431. For the same compound, the Bliss excess (NCI-H2461 (Mesothelioma)) was -0.0376, the Bliss excess (NCI-H2795 (Mesothelioma)) was -0.0974 and the Bliss excess [8] was -0.0607. The Bliss excess [9] was -0.0354, the Bliss excess [10] was -0.0206 and the Bliss excess [11] was -0.0622. For the same compound, the Bliss excess [12] was -0.043, the Bliss excess (SH-4 (Melanoma)) was -0.0768 and the Bliss excess [13] was -0.0205. It also gave a Bliss excess [14] of -0.0239 and a Bliss excess [15] of 0.0503.

`O=C(c1cc(Cc2n[nH]c(=O)c3ccccc23)ccc1F)N1CCN(C(=O)C2CC2)CC1` [Olaparib] + CC1(C)CCC(CN2CCN(c3ccc(C(=O)NS(=O)(=O)c4ccc(NCC5CCOCC5)c([N+](=O)[O-])c4)c(Oc4cnc5[nH]ccc5c4)c3)CC2)=C(c2ccc(Cl)cc2)C1 [Venetoclax] (first compound max 10 µM, 7x7, partner max 1 µM) gave a Bliss excess [1] of -0.0496, a Bliss excess [2] of -0.0564 and a Bliss excess [3] of -0.0025. The Bliss excess [4] was -0.0206, the Bliss excess (HMV-II (Melanoma)) was -0.0468 and the Bliss excess [5] was -0.0275. For the same compound, the Bliss excess [6] was -0.0388, the Bliss excess [7] was -0.0372 and the Bliss excess (Mewo (Melanoma)) was -0.0766. For the same compound, the Bliss excess (NCI-H2461 (Mesothelioma)) was -0.0373, the Bliss excess (NCI-H2795 (Mesothelioma)) was -0.0329 and the Bliss excess [8] was 0.158. For the same compound, the Bliss excess [9] was -0.0124, the Bliss excess [10] was -0.0425 and the Bliss excess [11] was 0.134. The Bliss excess [12] was -0.0275, the Bliss excess (SH-4 (Melanoma)) was -0.0355 and the Bliss excess [13] was 0.104. For the same compound, the Bliss excess [14] was -0.0429 and the Bliss excess [15] was -0.0258.

Work on `O=C(c1cc(Cc2n[nH]c(=O)c3ccccc23)ccc1F)N1CCN(C(=O)C2CC2)CC1` [Olaparib] + CN(CC[C@H](CSC1=CC=CC=C1)NC2=C(C=C(C=C2)S(=O)(=O)NC(=O)C3=CC=C(C=C3)N4CCC(CC4)[C@H](C5=CC=CC=C5C6=CC=C(C=C6)Cl)O)S(=O)(=O)C(F)(F)F)CCO [AZD4320] (first compound max 10 µM, 7x7, partner max 1 µM) yielded a Bliss excess [1] of -0.0021, a Bliss excess [2] of -0.0347 and a Bliss excess [3] of -0.0184. For the same compound, the Bliss excess [4] was -0.0379, the Bliss excess (HMV-II (Melanoma)) was -0.0537 and the Bliss excess [5] was 0.0123. For the same compound, the Bliss excess [6] was -0.0148, the Bliss excess [7] was -0.043 and the Bliss excess (Mewo (Melanoma)) was -0.0615. For the same compound, the Bliss excess (NCI-H2461 (Mesothelioma)) was -0.0534, the Bliss excess (NCI-H2795 (Mesothelioma)) was -0.0086 and the Bliss excess [8] was 0.0294. For the same compound, the Bliss excess [9] was -0.0165, the Bliss excess [10] was -0.0405 and the Bliss excess [11] was 0.0694. It also gave a Bliss excess [12] of -0.0305, a Bliss excess (SH-4 (Melanoma)) of -0.0505 and a Bliss excess [13] of 0.0091. For the same compound, the Bliss excess [14] was -0.0404 and the Bliss excess [15] was -0.0291.

`O=C(c1cc(Cc2n[nH]c(=O)c3ccccc23)ccc1F)N1CCN(C(=O)C2CC2)CC1` [Olaparib] + COc1nnc2ccc(N3CCC(c4ccc(OCCN5CCN(C)C(=O)[C@H]5C)cc4)CC3)nn12 [AZD5153] (first compound max 10 µM, 7x7, partner max 1 µM) was tested, and the Bliss excess [1] was -0.0923, the Bliss excess [2] was -0.0573 and the Bliss excess [3] was -0.0427. It also gave a Bliss excess [4] of -0.0775, a Bliss excess (HMV-II (Melanoma)) of -0.046 and a Bliss excess [5] of -0.0022. The Bliss excess [6] was -0.0392, the Bliss excess [7] was -0.0737 and the Bliss excess (Mewo (Melanoma)) was -0.074. It also gave a Bliss excess (NCI-H2461 (Mesothelioma)) of -0.118, a Bliss excess (NCI-H2795 (Mesothelioma)) of -0.085 and a Bliss excess [8] of 0.0144. The Bliss excess [9] was -0.0341, the Bliss excess [10] was -0.0144 and the Bliss excess [11] was -0.0487. For the same compound, the Bliss excess [12] was -0.0332, the Bliss excess (SH-4 (Melanoma)) was -0.11 and the Bliss excess [13] was -0.0338. For the same compound, the Bliss excess [14] was -0.0745 and the Bliss excess [15] was -0.0668.
